Reference: PubChem BioAssay (NCI)
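Values below derive from 48-hour exposures of cells grown in 96-well plates, with endpoints linearly interpolated between the two concentrations bracketing the appropriate inhibition level. Here, GI50 denotes the concentration required for 50% inhibition of growth. At the TGI there is no net growth.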

Tests used:
Experiment in all cases: DTP human tumour cell line panel, 48 h
786-0 renal = test system: 786-0 renal
A498 renal = test system: A498 renal
A549 NSCLC = test system: A549 NSCLC
BT-549 breast = test system: BT-549 breast
CCRF-CEM leukemia = test system: CCRF-CEM leukemia
COLO 205 colon = test system: COLO 205 colon
DU-145 prostate = test system: DU-145 prostate
EKVX NSCLC = test system: EKVX NSCLC
HCC-2998 colon = test system: HCC-2998 colon
HCT-116 colon = test system: HCT-116 colon
HCT-15 colon = test system: HCT-15 colon
HL-60(TB) leukemia = test system: HL-60(TB) leukemia
HOP-62 NSCLC = test system: HOP-62 NSCLC
HOP-92 NSCLC = test system: HOP-92 NSCLC
HS 578T breast = test system: HS 578T breast
HT29 colon = test system: HT29 colon
IGROV1 ovarian = test system: IGROV1 ovarian
K-562 leukemia = test system: K-562 leukemia
KM12 colon = test system: KM12 colon
LOX IMVI melanoma = test system: LOX IMVI melanoma
M14 melanoma = test system: M14 melanoma
MALME-3M melanoma = test system: MALME-3M melanoma
MCF7 breast = test system: MCF7 breast
MDA-MB-231 breast = test system: MDA-MB-231 breast
MDA-MB-435 = test system: MDA-MB-435
MOLT-4 leukemia = test system: MOLT-4 leukemia
NCI-H226 lung = test system: NCI-H226 lung
NCI-H23 lung = test system: NCI-H23 lung
NCI-H460 lung = test system: NCI-H460 lung
NCI-H522 lung = test system: NCI-H522 lung
NCI/ADR-RES ovarian = test system: NCI/ADR-RES ovarian
OVCAR-3 ovarian = test system: OVCAR-3 ovarian
OVCAR-4 ovarian = test system: OVCAR-4 ovarian
OVCAR-5 ovarian = test system: OVCAR-5 ovarian
OVCAR-8 ovarian = test system: OVCAR-8 ovarian
PC-3 prostate = test system: PC-3 prostate
RPMI-8226 leukemia = test system: RPMI-8226 leukemia
RXF 393 renal = test system: RXF 393 renal
SF-268 CNS = test system: SF-268 CNS
SF-295 CNS = test system: SF-295 CNS
SF-539 CNS = test system: SF-539 CNS
SK-MEL-2 melanoma = test system: SK-MEL-2 melanoma
SK-MEL-28 melanoma = test system: SK-MEL-28 melanoma
SK-MEL-5 melanoma = test system: SK-MEL-5 melanoma
SK-OV-3 ovarian = test system: SK-OV-3 ovarian
SN12C renal = test system: SN12C renal
SNB-19 CNS = test system: SNB-19 CNS
SNB-75 CNS = test system: SNB-75 CNS
SR leukemia = test system: SR leukemia
SW-620 colon = test system: SW-620 colon
T-47D breast = test system: T-47D breast
TK-10 renal = test system: TK-10 renal
U251 CNS = test system: U251 CNS
UACC-257 melanoma = test system: UACC-257 melanoma
UACC-62 melanoma = test system: UACC-62 melanoma
UO-31 renal = test system: UO-31 renal

In the case of `CN(C)CCCSc1ccccc1NC1=C(Cl)C(=O)C(Nc2ccccc2SCCCN(C)C)=C(Cl)C1=O`, the GI50 (786-0 renal) is reported as 1720 nM, the TGI (786-0 renal) is reported as 3170 nM and the GI50 (A498 renal) is reported as 8360 nM. The TGI (A498 renal) was 20600 nM, the GI50 (A549 NSCLC) was 5430 nM and the TGI (A549 NSCLC) was 17000 nM. For the same compound, the GI50 (BT-549 breast) was 1460 nM, the TGI (BT-549 breast) was 2870 nM and the GI50 (CCRF-CEM leukemia) was 476 nM. The TGI (CCRF-CEM leukemia) was 4150 nM, the GI50 (COLO 205 colon) was 2080 nM and the TGI (COLO 205 colon) was 4030 nM. It also gave a GI50 (DU-145 prostate) of 1760 nM, a TGI (DU-145 prostate) of 3230 nM and a GI50 (EKVX NSCLC) of 1810 nM. The TGI (EKVX NSCLC) was 3380 nM, the GI50 (HCC-2998 colon) was 2110 nM and the TGI (HCC-2998 colon) was 5490 nM. For the same compound, the GI50 (HCT-116 colon) was 1520 nM, the TGI (HCT-116 colon) was 2930 nM and the GI50 (HCT-15 colon) was 1690 nM. It also gave a TGI (HCT-15 colon) of 3320 nM, a GI50 (HL-60(TB) leukemia) of 690 nM and a TGI (HL-60(TB) leukemia) of 2910 nM. For the same compound, the GI50 (HOP-62 NSCLC) was 3590 nM, the TGI (HOP-62 NSCLC) was 10600 nM and the GI50 (HOP-92 NSCLC) was 1480 nM. It also gave a TGI (HOP-92 NSCLC) of 3060 nM, a GI50 (HS 578T breast) of 3140 nM and a TGI (HS 578T breast) of 21400 nM. For the same compound, the GI50 (HT29 colon) was 2130 nM, the TGI (HT29 colon) was 4160 nM and the GI50 (IGROV1 ovarian) was 1390 nM. It also gave a TGI (IGROV1 ovarian) of 3440 nM, a GI50 (K-562 leukemia) of 2080 nM and a TGI (K-562 leukemia) of 5920 nM. The GI50 (KM12 colon) was 1890 nM, the TGI (KM12 colon) was 4090 nM and the GI50 (LOX IMVI melanoma) was 1390 nM. The TGI (LOX IMVI melanoma) was 2880 nM, the GI50 (M14 melanoma) was 1740 nM and the TGI (M14 melanoma) was 3720 nM. For the same compound, the GI50 (MALME-3M melanoma) was 1850 nM, the TGI (MALME-3M melanoma) was 3600 nM and the GI50 (MCF7 breast) was 1650 nM. The TGI (MCF7 breast) was 3940 nM, the GI50 (MDA-MB-231 breast) was 1780 nM and the TGI (MDA-MB-231 breast) was 3380 nM. It also gave a GI50 (MDA-MB-435) of 2060 nM, a TGI (MDA-MB-435) of 4520 nM and a GI50 (MOLT-4 leukemia) of 410 nM. The TGI (MOLT-4 leukemia) was 2680 nM, the GI50 (NCI-H226 lung) was 2210 nM and the TGI (NCI-H226 lung) was 4320 nM. It also gave a GI50 (NCI-H23 lung) of 1750 nM, a TGI (NCI-H23 lung) of 3740 nM and a GI50 (NCI-H460 lung) of 4490 nM. It also gave a TGI (NCI-H460 lung) of 16300 nM, a GI50 (NCI-H522 lung) of 1070 nM and a TGI (NCI-H522 lung) of 2890 nM. It also gave a GI50 (NCI/ADR-RES ovarian) of 3210 nM, a TGI (NCI/ADR-RES ovarian) of 18700 nM and a GI50 (OVCAR-3 ovarian) of 1530 nM. It also gave a TGI (OVCAR-3 ovarian) of 2890 nM, a GI50 (OVCAR-4 ovarian) of 1290 nM and a TGI (OVCAR-4 ovarian) of 2560 nM. It also gave a GI50 (OVCAR-5 ovarian) of 1780 nM, a TGI (OVCAR-5 ovarian) of 3290 nM and a GI50 (OVCAR-8 ovarian) of 2030 nM. The TGI (OVCAR-8 ovarian) was 3990 nM, the GI50 (PC-3 prostate) was 1680 nM and the TGI (PC-3 prostate) was 3840 nM. It also gave a GI50 (RPMI-8226 leukemia) of 2350 nM, a TGI (RPMI-8226 leukemia) of 5620 nM and a GI50 (RXF 393 renal) of 1920 nM. For the same compound, the TGI (RXF 393 renal) was 3350 nM, the GI50 (SF-268 CNS) was 1930 nM and the TGI (SF-268 CNS) was 4480 nM. For the same compound, the GI50 (SF-295 CNS) was 1960 nM, the TGI (SF-295 CNS) was 3820 nM and the GI50 (SF-539 CNS) was 1680 nM. For the same compound, the TGI (SF-539 CNS) was 3100 nM, the GI50 (SK-MEL-2 melanoma) was 2300 nM and the TGI (SK-MEL-2 melanoma) was 5480 nM. The GI50 (SK-MEL-28 melanoma) was 1670 nM, the TGI (SK-MEL-28 melanoma) was 3120 nM and the GI50 (SK-MEL-5 melanoma) was 1830 nM. The TGI (SK-MEL-5 melanoma) was 3550 nM, the GI50 (SK-OV-3 ovarian) was 12500 nM and the TGI (SK-OV-3 ovarian) was 25000 nM. It also gave a GI50 (SN12C renal) of 1720 nM, a TGI (SN12C renal) of 3180 nM and a GI50 (SNB-19 CNS) of 3420 nM. The TGI (SNB-19 CNS) was 11400 nM, the GI50 (SNB-75 CNS) was 11100 nM and the TGI (SNB-75 CNS) was 23200 nM. The GI50 (SR leukemia) was 2150 nM, the TGI (SR leukemia) was 6050 nM and the GI50 (SW-620 colon) was 2170 nM. The TGI (SW-620 colon) was 4380 nM, the GI50 (T-47D breast) was 1450 nM and the TGI (T-47D breast) was 3980 nM. It also gave a GI50 (TK-10 renal) of 2220 nM, a TGI (TK-10 renal) of 3700 nM and a GI50 (U251 CNS) of 2120 nM. The TGI (U251 CNS) was 3690 nM, the GI50 (UACC-257 melanoma) was 1960 nM and the TGI (UACC-257 melanoma) was 3450 nM. For the same compound, the GI50 (UACC-62 melanoma) was 1810 nM, the TGI (UACC-62 melanoma) was 3510 nM and the GI50 (UO-31 renal) was 1470 nM. It also gave a TGI (UO-31 renal) of 2790 nM.
